Measured values as given in patent US20060135485A1, “Microbicidal compositions and their use” (priority 2002, published 2006).

Columns and labels:
Assay type in all cases: cell-based
[1] = tested on: Pseudomonas aeruginosa ATCC 9027, Candida albicans ATCC 10231, Aspergillus niger ATCC 16404; test: Preservation loading test in styrene butadiene emulsions; details: sole active component, neutral conditions, typical polymer emulsion; bacteria, yeasts and moulds
Method: Styrene Butadiene Emulsions were inoculated with 1×10^6 of the test culture, stored for 7 days at 25° C. and then a semi-quantitative determination of colony forming units was carried out. This loading test was carried out with a representative bacteria (Pseudomonas aeruginosa ATCC 9027), a representative yeast (Candida albicans ATCC 10231) and a representative mould (Aspergillus niger ATCC 16404) over consecutive weeks until the product has been subjected to (at least) three separate loadings of each culture type. The concentration of preserving agent at which no recovery of the test organisms was observed is the end point of the test and adequacy of preservation is assumed.

[2] = tested on: Aspergillus niger (ASN) ATCC 16404; test: MIC culture tube dilution test; details: pH 7.2±0.2, 72 hour incubation at 36° C.
Method: (§1) Microbiocides and microbiocidal properties were determined experimentally. Very well suited test methods are described in detail in the German Society for Hygiene and Microbiology (GGHM) for the examination of disinfectants. In order to determine the MIC, culture tube dilution tests were carried out according to the “regulations for the examination and evaluation of chemical disinfection procedures (Edition 1.1.81, procedures slightly modified)” using a […]-soya bean meal peptide medium. The dilution was carried out with water of standardised hardness without further agents such as surfactants. The adjustment of the pH values to 7.2±0.2 was carried out with 0.1 mol/NaOH or 0.1 mol/HCl. The gradation of test concentrations was made according to the concentration steps proposed by the GGHM. The evaluation was carried out after a 72 hour incubation at 36° C. [table] One part polyvinylamine, consisting of 95 wt % vinyl units and 5 wt % vinylformamide units with a K-value of 90 were mixed with 4.2 parts cyclohexyldiazeniumdioxy potassium. […] The effectiveness was determined according to the abovementioned methods. MIC stated here gives the minimal effective concentration, in which a.i. (active ingredient) means the active component.

[3] = tested on: Candida albicans (CA) ATCC 10231; test: MIC culture tube dilution test; details: pH 7.2±0.2, 72 hour incubation at 36° C.
Method: as §1

[4] = tested on: Escherichia coli (EC) ATCC 11229; test: MIC culture tube dilution test; details: pH 7.2±0.2, 72 hour incubation at 36° C.
Method: as §1

[5] = tested on: Proteus mirabilis (PRM) ATCC 14153; test: MIC culture tube dilution test; details: pH 7.2±0.2, 72 hour incubation at 36° C.
Method: as §1

[6] = tested on: Pseudomonas aeruginosa (PSA) ATCC 15442; test: MIC culture tube dilution test; details: pH 7.2±0.2, 72 hour incubation at 36° C.
Method: as §1

[7] = tested on: Staphylococcus aureus (STA) ATCC 6538; test: MIC culture tube dilution test; details: pH 7.2±0.2, 72 hour incubation at 36° C.
Method: as §1

O=NN(O)C1CCCCC1.[K] [KHDO, potassium salt of N′-hydroxy-N-cyclohexyl-diazenium oxide]
Killing of spoilage microorganisms (in words) [1]: able not only to inhibit but actively kill a representative range of spoilage microorganisms | MIC Cyclohexyldiazeniumdioxy potassium [ppm a.i.] B [2]: 175 ppm a.i. | MIC Cyclohexyldiazeniumdioxy potassium [ppm a.i.] B [3]: 350 ppm a.i. | MIC Cyclohexyldiazeniumdioxy potassium [ppm a.i.] B [4]: 350 ppm a.i. | MIC Cyclohexyldiazeniumdioxy potassium [ppm a.i.] B [5]: 750 ppm a.i. | MIC Cyclohexyldiazeniumdioxy potassium [ppm a.i.] B [6]: 3000 ppm a.i. | MIC Cyclohexyldiazeniumdioxy potassium [ppm a.i.] B [7]: 750 ppm a.i.
